Laboratory results published in PMC8163091, “Production of novel pladienolide analogues through native expression of a pathway-specific activator” (Chemical Science, 2020).
≈ marks a conversion by molar mass, not a printed value.

What was measured:
Assay type in all cases: cell-based
[1] = tested on: Candida albicans ATCC 10231; experiment: Antifungal assay, C. albicans; conditions: ATCC10231, 24 °C, 48 h, read visually
Description: (§1) To ascertain the bioactivity of all compounds the inhibitory concentrations of 1–6 were measured against bacteria (Bacillus subtilis ATCC 6633 and Staphylococcus aureus ATCC 25923), yeasts (Candida albicans ATCC 10231 and Saccharomyces cerevisiae ATCC 9763), a protozoan (Tritrichomonas foetus), and mammalian cell lines (NS-1 mouse myeloma ATCC TIB-18 and NFF human neonatal foreskin fibroblast cells ATCC PCS-201). […] Given this selectivity, the IC50 values for each compound 1–5versus NS-1, NFF and DU145 human prostate cancer cell ATCC HTB-81 were ascertained by a resazurin-based assay (Table 2). […]
(§2) 1.7. Assays for Biological Activity
(§3) Purified metabolites (1 – 6) were dissolved in DMSO to provide stock solutions (1,000 µg/mL or 40 µg/mL). Bioassays were carried out in 96-well microtitre plates containing two-fold serial dilutions to yield ranges of 10 to 0.005 µg mL-1 or 0.4 to 0.0002 µg mL-1, in 1% DMSO. […]
(§4) Antifungal assays were carried out using Candida albicans ATCC 10231 and Saccharomyces cerevisiae ATCC 9763 as indicative species for antifungal activity. A yeast suspension (50 mL in 250 mL flask) was prepared in malt extract broth (1.0 g L-1 bacteriological peptone (Bacto), 20.0 g L-1 malt extract […]
(§5) (Bacto), 20 g L-1 glucose (Country Brewers)) by cultivation for 24 h at 250 rpm, 24 °C. The suspension was diluted to an absorbance of 0.005 and 0.03 absorbance units [ OD400] per mL for C. albicans and S. cerevisiae, respectively. Aliquots (20 µL and 30 µL) of C. albicans and S. cerevisiae, respectively were applied to the wells of a 96-well microtitre plate, which contained the test compounds dispersed in malt extract broth containing bromocresol green (50 µg mL-1). The plates were incubated at 24 °C for 48 h during which time the positive control wells change colour from a blue to yellow colour. MIC end points were determined visually. […]
(§6) To assay antitumour activity, NS -1 ATCC TIB-18 mouse myeloma , DU145 prostate cancer cells (ATCC HTB-81), and NFF (ATCC PCS -201) human neonatal foreskin fibroblast cells were each

[2] = tested on: NS-1 mouse myeloma ATCC TIB-18; experiment: Antitumour resazurin assay, NS-1 mouse myeloma cells; conditions: 96 h; for MIC, NS-1: NS-1 mouse myeloma ATCC TIB-18; for IC50: Mus musculus, read-out: IC50 ± 95% confidence interval, NS-1
Description: as §1, §2, §3
(§7) To assay antitumour activity, NS -1 ATCC TIB-18 mouse myeloma , DU145 prostate cancer cells (ATCC HTB-81), and NFF (ATCC PCS -201) human neonatal foreskin fibroblast cells were each inoculated in 96 -well microtitre plates (190 µL) at 50,000 cells mL-1 in DMEM (Dulbecco's Modified Eagle Medium + 10% v/v fetal bovine serum (FBS) + 1% v/v penicillin/streptomycin (10,000U mL-1/ 10,000 µg mL-1, Life Technologies Cat. No. 15140122), together with resazurin (250 µg/mL; 10 µL) and incubated at 37 °C (5% CO2). The plates were incubated for 96 h. Absorbance was measured using a Spectromax plate reader (Molecular Devices) at 605 nm for % inhibition, and IC50 values determined.

[3] = tested on: NFF human neonatal foreskin fibroblast cells ATCC PCS-201; experiment: Resazurin assay, NFF human neonatal foreskin fibroblast cells; conditions: for IC50: Homo sapiens, Fibroblast, read-out: IC50 ± 95% confidence interval, NFF; for IC50 / MIC, NFF: 96 h; for MIC, NFF: NFF human neonatal foreskin fibroblast ATCC PCS-201
Description: as §1, §2, §3, §7

[4] = tested on: Bacillus subtilis ATCC 6633; experiment: Antibacterial assay, B. subtilis; conditions: ATCC6633, 28 °C, 48 h, read visually
Description: as §1, §2
as §3, with “DMSO. Wells containing no test compound as a reference for no inhibition, and uninoculated wells were used as a reference for complete” for “DMSO.”
(§8) Antibacterial assays were carried out using Bacillus subtilis ATCC 6633 and Staphylococcus aureus ATCC 25923 as indicative species for Gram-positive activity. A bacterial suspension (50 mL in 250 mL flask) was prepared in nutrient broth media (5.0 g L-1 bacteriological peptone (Bacto), 5.0 g L-1 NaCl (Chem-supply), 2.0 g L-1 yeast extract (Bacto), 1.0 g L-1 beef extract (Bacto)) by cultivation for 24 h at 250 rpm, 28 °C. The suspension was diluted to an absorbance of 0.01 absorbance units per mL [OD400 nm] and aliquots (10 µL) were added to the wells of a 96 -well microtitre plate containing the test compounds dispersed in nutrient broth with resazurin (12.5 µg mL-1). The plates were incubated at 28 °C for 48 h, during which time the positive control wells change colour from a blue to light pink colour. MICs were determined visually. […]

[5] = tested on: Staphylococcus aureus ATCC 25923; experiment: Antibacterial assay, S. aureus; conditions: ATCC25923, 28 °C, 48 h, read visually
Description: as §1, §2
as §3, with “DMSO. Wells containing no test compound as a reference for no inhibition, and uninoculated wells were used as a reference for complete” for “DMSO.”
as §8

[6] = tested on: Saccharomyces cerevisiae ATCC 9763; experiment: Antifungal assay, S. cerevisiae; conditions: ATCC9763, 24 °C, 48 h, read visually
Description: as §1, §2, §3, §4, §5, §6

[7] = tested on: mammalian cell lines; experiment: Inhibitory activity against mammalian cell lines (summary across NS-1, DU145, NFF)
Description: To ascertain the bioactivity of all compounds the inhibitory concentrations of 1–6 were measured against bacteria (Bacillus subtilis ATCC 6633 and Staphylococcus aureus ATCC 25923), yeasts (Candida albicans ATCC 10231 and Saccharomyces cerevisiae ATCC 9763), a protozoan (Tritrichomonas foetus), and mammalian cell lines (NS-1 mouse myeloma ATCC TIB-18 and NFF human neonatal foreskin fibroblast cells ATCC PCS-201). […] Given this selectivity, the IC50 values for each compound 1–5versus NS-1, NFF and DU145 human prostate cancer cell ATCC HTB-81 were ascertained by a resazurin-based assay (Table 2).
as §5
Cat. No. 15140122), 10% v/v new born calf serum (NBCS), Life Technologies). […] T. foetus proliferation was measured at 72 h . […]

[8] = tested on: DU145 human prostate cancer cell ATCC HTB-81; experiment: Antitumour resazurin assay, DU145 prostate cancer cells; conditions: DU-145, 96 h, read-out: IC50 ± 95% confidence interval, DU145
Description: as §1, §2, §3, §7

`CC[C@H](O)[C@@H](C)/C=C/C[C@H](C)/C=C/C=C(\C)[C@H]1OC(=O)C[C@H](O)CC[C@H](C)[C@@H](O)/C=C/[C@@H]1C` [Compound 5, Δ18,19-6-deoxy-7-desacetylpladienolide B] was tested, and the MIC [1] was > 20 µg/mL, the “MIC, NS-1” value [2] was 0.63 µg/mL (≈ 1.36 µM) and the IC50 [3] was 8100 ± 1800 nM. For the same compound, the “Activity, times lower than 1 against NFF” value ([3]; NFF) was > 600 times, the “MIC, NFF” value [3] was 10 µg/mL (≈ 21.6 µM) and the MIC [4] was > 10 µg/mL. For the same compound, the MIC [5] was > 10 µg/mL and the MIC [6] was > 20 µg/mL.
With `CC[C@H](O)[C@@H](C)[C@H]1O[C@@H]1C[C@H](C)/C=C/C=C(\C)[C@H]1OC(=O)C[C@H](O)CC[C@H](C)[C@@H](OC(C)=O)/C=C/[C@@H]1C` [Compound 2, 6-deoxypladienolide B] the MIC [1] was > 20 µg/mL, the “Fold less effective than 1” value ([7]; depending on the cell line) was ≤ 8 fold and the IC50 [2] was 40.3 ± 3.7 nM. The “MIC, NS-1” value [2] was 0.001 µg/mL (≈ 0.00192 µM), the IC50 [3] was 27 ± 14 nM and the “MIC, NFF” value [3] was 0.04 µg/mL (≈ 0.0768 µM). For the same compound, the MIC [4] was > 10 µg/mL, the IC50 [8] was 9.6 ± 5.8 nM and the MIC [5] was > 10 µg/mL. The MIC [6] was > 20 µg/mL.
`CC[C@H](O)[C@@H](C)[C@H]1O[C@@H]1C[C@H](C)/C=C/C=C(\C)[C@H]1OC(=O)C[C@H](O)CC[C@@](C)(O)[C@@H](OC(C)=O)/C=C/[C@@H]1C` [Compound 1, pladienolide B] was tested, and the MIC [1] was > 20 µg/mL, the IC50 [2] was 5.6 ± 0.6 nM and the “MIC, NS-1” value [2] was 0.001 µg/mL (≈ 0.00186 µM). The IC50 [3] was 13 ± 4.1 nM, the “MIC, NFF” value [3] was 0.013 µg/mL (≈ 0.0242 µM) and the MIC [4] was > 10 µg/mL. For the same compound, the IC50 [8] was 7.5 ± 3.5 nM, the MIC [5] was > 10 µg/mL and the MIC [6] was > 20 µg/mL.
`CC[C@H](O)[C@@H](C)/C=C/C[C@H](C)/C=C/C=C(\C)[C@H]1OC(=O)C[C@H](O)CC[C@@](C)(O)[C@@H](OC(C)=O)/C=C/[C@@H]1C` [Compound 3, Δ18,19-pladienolide B] was tested, and the MIC [1] was > 20 µg/mL, the “IC50 values, times greater than those of 1” value ([7]; across cell lines) was “up to twenty-five” and the IC50 [2] was > 770 nM. For the same compound, the “MIC, NS-1” value [2] was 0.05 µg/mL (≈ 0.096 µM), the IC50 [3] was 319 ± 61 nM and the “MIC, NFF” value [3] was 0.6 µg/mL (≈ 1.15 µM). For the same compound, the MIC [4] was > 10 µg/mL, the IC50 [8] was 96 ± 27 nM and the MIC [5] was > 10 µg/mL. For the same compound, the MIC [6] was > 20 µg/mL.
In the case of `CC[C@H](O)[C@@H](C)/C=C/C[C@H](C)/C=C/C=C(\C)[C@H]1OC(=O)C[C@H](O)CC[C@H](C)[C@@H](OC(C)=O)/C=C/[C@@H]1C` [Compound 4, Δ18,19-6-deoxypladienolide B], the MIC [1] is reported as > 20 µg/mL, the IC50 [2] is reported as > 790 nM and the “MIC, NS-1” value [2] is reported as 0.1 µg/mL (≈ 0.198 µM). The IC50 [3] was > 790 nM, the “MIC, NFF” value [3] was 0.4 µg/mL (≈ 0.793 µM) and the MIC [4] was > 10 µg/mL. The IC50 [8] was 264 ± 79 nM, the MIC [5] was > 10 µg/mL and the MIC [6] was > 20 µg/mL.
For `CC[C@@H]1O[C@@H](C[C@H](C)/C=C/C=C(\C)[C@H]2OC(=O)C[C@H](O)CC[C@@](C)(O)[C@@H](OC(C)=O)/C=C/[C@@H]2C)[C@H](O)[C@@H]1C` [Compound 6, isopladienolide B], the MIC [1] was > 20 µg/mL, the “MIC, NS-1” value [2] was 0.08 µg/mL (≈ 0.149 µM) and the “MIC, NFF” value [3] was 1.25 µg/mL (≈ 2.33 µM). The MIC [4] was > 10 µg/mL, the MIC [5] was > 10 µg/mL and the MIC [6] was > 20 µg/mL.
